Assay results reported in ChEMBL document CHEMBL3774333, “Identification of SNAIL1 Peptide-Based Irreversible Lysine-Specific Demethylase 1-Selective Inactivators” (J Med Chem, 2016).
Active and inactive are the calls of the source. The calls are words filed in the database; no cut-off is given here. *1 amine or outer side, *2 acyl side, *3 side chain or, on linkers, in order; H or OH if unused. Where a SMILES comes first, the peptide text is derived from it. [ ]: non-standard residue; d: D form. X2 = CNNCCC[C@H](N[*:1])C(=O)[*:2]

What was measured:
[1] = molecular target: T1, Lysine-specific histone demethylase 1A (Homo sapiens, UniProt O60341); test: Time dependent irreversible inhibition of human LSD1 using H3K4me2 peptide as substrate at 0.1 to 6.4 uM incubated for 5 mins by fluorometric assay
[2] = molecular target: T1, Lysine-specific histone demethylase 1A; test: Irreversible inhibition of LSD1 (unknown origin) using H3K4me2 peptide substrate assessed as compound-FAD adduct formation after 22 hrs by MALDI-TOF mass spectrometric analysis
[3] = molecular target: T1, Lysine-specific histone demethylase 1A; test: Inhibition of LSD1 in human HeLa cells assessed as H3K4me2/H3 ratio at 20 uM after 24 hrs by Western blot analysis in absence of fetal bovine serum; format: cell-based
HeLa [4] = test: Antiproliferative activity against human HeLa cells assessed as reduction in cell viability at 300 uM treated for 24 hrs measured after 48 hrs by alamar blue assay in absence of fetal bovine serum relative to control; format: functional
HeLa [5] = test: Antiproliferative activity against human HeLa cells assessed as reduction in cell viability at 100 uM treated for 24 hrs measured after 48 hrs by alamar blue assay in absence of fetal bovine serum; format: functional, cell-based
[6] = molecular target: T1, Lysine-specific histone demethylase 1A; test: biochemical
Description: Inhibition of full length N-terminal His-tagged human recombinant LSD1 (1 to 852 residues) expressed in Escherichia coli BL21(DE3) cells using H3K4me2 peptide as substrate preincubated for 5 mins followed by substrate addition measured for 30 mins by peroxidase coupled assay

[7] = molecular target: T1, Lysine-specific histone demethylase 1A; test: Drug metabolism assessed as LSD1 (unknown origin)-mediated demethylation of compound by measuring (3S,6S,9S,12S)-1-((S)-1-((S)-6-amino-2-((S)-2-((S)-4-amino-2-((S)-1-((S)-3-carboxy-2-((S)-2-((S)-1-((6S,9S,12S,15S,18S,21S,24S)-1,28-diamino-21-(3-guanidinopropyl)-12-(3-hydrazinylpropyl)-9-(hydroxymethyl)-1-imino-15-isobutyl-18-isopropyl-7,10,13,16,19,22-hexaoxo-6-((S)-pyrrolidine-2-carboxamido)-2,8,11,14,17,20,23-heptaazaoctacosanecarbonyl)pyrrolidine-2-carboxamido)-3-hydroxypropanamido)propanoyl)pyrrolidine-2-carboxamido)-4-oxobutanamido)-5-guanidinopentanamido)hexanoyl)pyrrolidin-2-yl)-3-(2-amino-2-oxoethyl)-12-carbamoyl-6-(4-hydroxybenzyl)-9-(hydroxymethyl)-1,4,7,10-tetraoxo-2,5,8,11-tetraazapentadecan-15-oic acid level after 22 hrs by MALDI-TOF mass spectrometric analysis; format: ADME
[8] = molecular target: Lysine-specific demethylase 5A (Homo sapiens, UniProt P29375)
Description: Inhibition of JARID1A (unknown origin) using H3K4me3 peptide substrate preincubated for 5 mins followed by substrate addition by MALDI-TOF mass spectrometric analysis

[9] = molecular target: T2, Lysine-specific histone demethylase 2 (Homo sapiens, UniProt Q8NB78); test: biochemical
T2 sequence (Q8NB78 whole entry): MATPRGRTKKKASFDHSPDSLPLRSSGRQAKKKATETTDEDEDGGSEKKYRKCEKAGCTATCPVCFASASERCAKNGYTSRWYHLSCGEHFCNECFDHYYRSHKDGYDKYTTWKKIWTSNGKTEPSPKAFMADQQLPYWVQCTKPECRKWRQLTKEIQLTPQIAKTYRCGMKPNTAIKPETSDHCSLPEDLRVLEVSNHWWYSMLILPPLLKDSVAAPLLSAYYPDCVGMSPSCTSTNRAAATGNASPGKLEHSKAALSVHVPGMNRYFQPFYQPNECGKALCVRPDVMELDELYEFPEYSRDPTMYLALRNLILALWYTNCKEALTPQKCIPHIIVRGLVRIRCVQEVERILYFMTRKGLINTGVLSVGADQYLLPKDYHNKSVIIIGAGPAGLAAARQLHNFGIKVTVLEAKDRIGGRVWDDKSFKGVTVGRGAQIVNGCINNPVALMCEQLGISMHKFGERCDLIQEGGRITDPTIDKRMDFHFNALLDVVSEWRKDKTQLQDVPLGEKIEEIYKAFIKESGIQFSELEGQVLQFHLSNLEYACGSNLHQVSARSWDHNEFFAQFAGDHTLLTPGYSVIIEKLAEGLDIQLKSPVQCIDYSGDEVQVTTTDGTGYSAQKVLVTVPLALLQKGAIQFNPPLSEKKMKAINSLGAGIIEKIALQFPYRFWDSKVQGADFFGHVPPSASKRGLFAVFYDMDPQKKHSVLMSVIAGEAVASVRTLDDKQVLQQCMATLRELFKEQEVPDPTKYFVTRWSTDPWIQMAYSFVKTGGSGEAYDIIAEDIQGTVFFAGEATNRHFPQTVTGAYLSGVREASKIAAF
Description: Inhibition of full length N-terminal His-tagged human LSD2 (1 to 822 residues) expressed in Escherichia coli BL21(DE3) cells using H3K4me2 peptide substrate by MALDI-TOF mass spectrometric analysis

[10] = molecular target: T3, Amine oxidase [flavin-containing] A (Homo sapiens, UniProt P21397); test: biochemical
T3 sequence (P21397 whole entry): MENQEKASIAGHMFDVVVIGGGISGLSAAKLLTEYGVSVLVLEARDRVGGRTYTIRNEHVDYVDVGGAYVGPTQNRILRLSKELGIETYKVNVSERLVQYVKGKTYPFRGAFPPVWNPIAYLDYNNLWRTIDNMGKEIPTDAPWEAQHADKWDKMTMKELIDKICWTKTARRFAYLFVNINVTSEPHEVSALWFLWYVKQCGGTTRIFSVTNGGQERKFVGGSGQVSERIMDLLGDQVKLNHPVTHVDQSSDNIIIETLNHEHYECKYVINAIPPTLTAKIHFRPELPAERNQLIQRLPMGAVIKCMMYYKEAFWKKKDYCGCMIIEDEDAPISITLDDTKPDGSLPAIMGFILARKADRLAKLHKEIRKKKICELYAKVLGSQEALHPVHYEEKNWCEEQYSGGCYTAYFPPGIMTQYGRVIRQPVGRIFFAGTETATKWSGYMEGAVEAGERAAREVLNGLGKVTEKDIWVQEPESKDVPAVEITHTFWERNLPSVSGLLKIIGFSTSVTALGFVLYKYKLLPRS
Description: Inhibition of human recombinant MAO-A expressed in baculovirus infected BTI insect cells using (4S)-4,5-dihydro-2-(6-hydroxybenzothiazolyl)-4-thiazolecarboxylic acid as substrate incubated for 60 mins by MAO-Glo assay

[11] = molecular target: T4, Amine oxidase [flavin-containing] B (Homo sapiens, UniProt P27338); test: biochemical
T4 sequence (P27338 whole entry): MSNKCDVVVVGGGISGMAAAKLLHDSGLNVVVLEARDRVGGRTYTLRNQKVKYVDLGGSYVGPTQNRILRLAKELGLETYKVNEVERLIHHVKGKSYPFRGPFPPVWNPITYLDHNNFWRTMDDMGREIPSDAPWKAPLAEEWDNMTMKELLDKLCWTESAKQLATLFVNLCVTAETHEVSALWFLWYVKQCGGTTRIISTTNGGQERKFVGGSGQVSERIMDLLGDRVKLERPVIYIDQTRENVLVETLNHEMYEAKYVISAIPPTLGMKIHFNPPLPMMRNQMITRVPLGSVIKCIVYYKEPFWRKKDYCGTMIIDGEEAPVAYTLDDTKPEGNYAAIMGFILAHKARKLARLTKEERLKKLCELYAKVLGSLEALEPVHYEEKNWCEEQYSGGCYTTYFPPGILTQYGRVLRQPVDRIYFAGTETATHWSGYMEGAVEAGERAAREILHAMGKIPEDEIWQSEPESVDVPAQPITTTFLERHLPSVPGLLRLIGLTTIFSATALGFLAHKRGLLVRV
Description: Inhibition of human recombinant MAO-B expressed in baculovirus infected BTI insect cells using (4S)-4,5-dihydro-2-(6-hydroxybenzothiazolyl)-4-thiazolecarboxylic acid as substrate incubated for 60 mins by MAO-Glo assay

Sequence of Lysine-specific demethylase 5A (P29375 whole entry): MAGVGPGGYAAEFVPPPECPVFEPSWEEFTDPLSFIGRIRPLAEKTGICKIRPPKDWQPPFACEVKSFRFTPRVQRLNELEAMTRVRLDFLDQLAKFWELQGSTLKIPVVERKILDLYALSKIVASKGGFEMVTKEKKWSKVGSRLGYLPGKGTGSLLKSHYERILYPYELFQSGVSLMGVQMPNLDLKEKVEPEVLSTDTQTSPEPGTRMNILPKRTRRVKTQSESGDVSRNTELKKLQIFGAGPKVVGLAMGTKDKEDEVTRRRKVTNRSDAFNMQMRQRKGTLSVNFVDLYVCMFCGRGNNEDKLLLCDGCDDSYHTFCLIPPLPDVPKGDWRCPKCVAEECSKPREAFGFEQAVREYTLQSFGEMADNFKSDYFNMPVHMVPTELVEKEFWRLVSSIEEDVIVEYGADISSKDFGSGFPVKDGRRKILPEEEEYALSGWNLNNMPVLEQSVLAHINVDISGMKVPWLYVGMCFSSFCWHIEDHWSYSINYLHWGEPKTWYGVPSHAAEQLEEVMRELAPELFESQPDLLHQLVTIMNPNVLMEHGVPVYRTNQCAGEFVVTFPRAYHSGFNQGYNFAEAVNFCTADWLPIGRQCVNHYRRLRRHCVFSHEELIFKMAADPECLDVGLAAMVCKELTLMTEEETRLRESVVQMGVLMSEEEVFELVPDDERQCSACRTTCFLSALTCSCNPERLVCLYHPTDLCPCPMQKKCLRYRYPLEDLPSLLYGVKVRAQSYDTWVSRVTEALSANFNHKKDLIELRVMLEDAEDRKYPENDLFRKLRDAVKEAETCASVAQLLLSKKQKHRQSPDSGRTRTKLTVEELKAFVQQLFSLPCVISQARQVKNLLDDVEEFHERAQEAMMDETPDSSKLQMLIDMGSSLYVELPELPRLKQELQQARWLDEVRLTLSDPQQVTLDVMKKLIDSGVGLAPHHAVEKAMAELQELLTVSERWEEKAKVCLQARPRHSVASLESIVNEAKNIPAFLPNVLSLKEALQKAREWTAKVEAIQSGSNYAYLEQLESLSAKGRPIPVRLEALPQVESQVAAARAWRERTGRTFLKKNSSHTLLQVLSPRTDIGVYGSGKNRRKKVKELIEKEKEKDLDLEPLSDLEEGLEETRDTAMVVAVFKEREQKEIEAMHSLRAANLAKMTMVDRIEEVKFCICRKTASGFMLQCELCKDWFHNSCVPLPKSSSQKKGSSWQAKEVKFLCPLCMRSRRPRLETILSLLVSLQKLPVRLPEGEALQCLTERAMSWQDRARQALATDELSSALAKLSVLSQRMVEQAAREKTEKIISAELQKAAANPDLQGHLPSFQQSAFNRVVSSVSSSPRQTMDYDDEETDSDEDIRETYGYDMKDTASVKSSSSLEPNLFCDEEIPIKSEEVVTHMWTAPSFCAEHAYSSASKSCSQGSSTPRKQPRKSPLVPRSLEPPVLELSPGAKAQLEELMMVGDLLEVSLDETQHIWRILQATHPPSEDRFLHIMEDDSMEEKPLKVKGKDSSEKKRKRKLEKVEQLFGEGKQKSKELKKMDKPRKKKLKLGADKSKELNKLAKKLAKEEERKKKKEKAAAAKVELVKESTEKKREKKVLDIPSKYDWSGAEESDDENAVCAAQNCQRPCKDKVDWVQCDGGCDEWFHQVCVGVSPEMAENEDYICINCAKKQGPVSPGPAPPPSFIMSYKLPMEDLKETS

TDI [1] | inhibition [2] | Ratio [3] | IC50 [6] [µM] | Drug metabolism [7] | IC50 [8] [µM] | IC50 [9] [µM] | IC50 [10] [µM] | IC50 [11] [µM] | SMILES | Activity (HeLa [4]) [%] | Activity (HeLa [5])
Active | Active | 1.34 |  |  |  |  |  |  | CC(C)C[C@@H](NC(=O)[C@@H](CCCNN)NC(=O)[C@@H](CO)NC(=O)[C@H](CCCNC(=N)N)NC(=O)[C@@H]1CCCN1)C(=O)N[C@@H](C(=O)N[C@H](CCCNC(=N)N)C(=O)N[C@H](CCCCN)C(=O)N1CCC[C@@H]1C(=O)N[C@H](CO)C(=O)N[C@H](CC(=O)O)C(=O)N1CCC[C@@H]1C(=O)N[C@H](CC(N)=O)C(=O)N[C@H](CCCNC(=N)N)C(=O)N[C@H](CCCCN)C(=O)N1CCC[C@@H]1C(=O)N[C@@H](CC(N)=O)C(=O)N[C@H](Cc1ccc(O)cc1)C(=O)N[C@H](CO)C(=O)N[C@H](CCC(N)=O)C(N)=O)C(C)C |  | 
 |  | 2.03 | 0.61 |  |  |  |  |  | O=C(O)c1ccc(CN2CCC(CN[C@H]3C[C@@H]3c3ccccc3)CC2)cc1 | 9.96 | inactive
 |  |  | 8.4 | metabolite_detected | > 50 | > 50 | > 30 | > 30 | CNNCCC[C@H](NC(=O)[C@H](CO)NC(=O)[C@H](CCCNC(=N)N)NC(=O)[C@@H]1CCCN1)C(=O)N[C@@H](CC(C)C)C(=O)N[C@H](C(=O)N[C@@H](CCCNC(=N)N)C(=O)N[C@@H](CCCCN)C(=O)N1CCC[C@H]1C(=O)N[C@@H](CO)C(=O)N[C@@H](CC(=O)O)C(=O)N1CCC[C@H]1C(=O)N[C@@H](CC(N)=O)C(=O)N[C@@H](CCCNC(=N)N)C(=O)N[C@@H](CCCCN)C(=O)N1CCC[C@H]1C(=O)N[C@@H](CC(N)=O)C(=O)N[C@@H](Cc1ccc(O)cc1)C(=O)N[C@@H](CO)C(=O)N[C@@H](CCC(N)=O)C(N)=O)C(C)C (H-PRS[X2]LVRKPSDPNRKPNYSQ-NH2) |  | 
